Drawing on ChEMBL document CHEMBL5291721, “A preclinical secondary pharmacology resource illuminates target-adverse drug reaction associations of marketed drugs” (Nat Commun, 2023), this text covers AC50 for twelve compounds.

Molecules are shown by their SMILES.

The target of experiment [1] is cGMP-inhibited 3',5'-cyclic phosphodiesterase 3A (Homo sapiens, UniProt Q14432). Type of experiment: functional.
For a further experiment, the target named is Motilin receptor (Homo sapiens, UniProt O43193).
The target of experiment [2] is Delta-type opioid receptor (Homo sapiens, UniProt P41143).
The target of the next experiment is D(3) dopamine receptor (Homo sapiens, UniProt P35462).
For experiment [3], the target named is T1, Muscarinic acetylcholine receptor M2 (Homo sapiens, UniProt P08172).
T1 sequence (P08172 whole entry): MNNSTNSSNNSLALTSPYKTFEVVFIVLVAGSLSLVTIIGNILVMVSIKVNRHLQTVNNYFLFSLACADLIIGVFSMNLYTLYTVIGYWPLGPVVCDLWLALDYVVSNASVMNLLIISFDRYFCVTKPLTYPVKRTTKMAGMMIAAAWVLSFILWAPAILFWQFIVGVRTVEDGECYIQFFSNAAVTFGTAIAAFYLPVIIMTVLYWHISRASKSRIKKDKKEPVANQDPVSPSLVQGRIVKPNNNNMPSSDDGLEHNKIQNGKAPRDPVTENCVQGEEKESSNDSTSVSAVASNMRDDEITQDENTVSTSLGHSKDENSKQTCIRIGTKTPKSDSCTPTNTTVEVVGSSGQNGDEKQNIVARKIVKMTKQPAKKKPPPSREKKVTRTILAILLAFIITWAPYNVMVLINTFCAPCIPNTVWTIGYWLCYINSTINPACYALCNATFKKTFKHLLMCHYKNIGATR
Type of experiment: functional, cell-based.

In a further experiment the target is T2, Estrogen receptor (Homo sapiens, UniProt P03372).
T2 sequence (P03372 whole entry): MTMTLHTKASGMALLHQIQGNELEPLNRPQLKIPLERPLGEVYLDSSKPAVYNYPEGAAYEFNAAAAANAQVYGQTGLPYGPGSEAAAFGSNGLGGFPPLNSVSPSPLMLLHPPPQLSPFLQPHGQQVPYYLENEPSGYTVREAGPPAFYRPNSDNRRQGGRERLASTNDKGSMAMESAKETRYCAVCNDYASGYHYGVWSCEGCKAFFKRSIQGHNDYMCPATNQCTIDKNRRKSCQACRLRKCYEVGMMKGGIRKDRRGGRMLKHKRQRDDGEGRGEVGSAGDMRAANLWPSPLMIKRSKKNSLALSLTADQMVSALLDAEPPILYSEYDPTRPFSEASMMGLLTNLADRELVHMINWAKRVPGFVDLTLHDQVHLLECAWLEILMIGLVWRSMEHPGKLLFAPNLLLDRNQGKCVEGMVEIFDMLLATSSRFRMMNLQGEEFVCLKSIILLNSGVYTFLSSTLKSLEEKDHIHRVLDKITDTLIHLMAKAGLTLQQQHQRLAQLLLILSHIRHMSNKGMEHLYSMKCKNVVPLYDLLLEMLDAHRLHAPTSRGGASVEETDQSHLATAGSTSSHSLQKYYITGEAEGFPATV

The target of experiment [4] is T3, Alpha-2A adrenergic receptor (Homo sapiens, UniProt P08913).
T3 sequence (P08913 whole entry): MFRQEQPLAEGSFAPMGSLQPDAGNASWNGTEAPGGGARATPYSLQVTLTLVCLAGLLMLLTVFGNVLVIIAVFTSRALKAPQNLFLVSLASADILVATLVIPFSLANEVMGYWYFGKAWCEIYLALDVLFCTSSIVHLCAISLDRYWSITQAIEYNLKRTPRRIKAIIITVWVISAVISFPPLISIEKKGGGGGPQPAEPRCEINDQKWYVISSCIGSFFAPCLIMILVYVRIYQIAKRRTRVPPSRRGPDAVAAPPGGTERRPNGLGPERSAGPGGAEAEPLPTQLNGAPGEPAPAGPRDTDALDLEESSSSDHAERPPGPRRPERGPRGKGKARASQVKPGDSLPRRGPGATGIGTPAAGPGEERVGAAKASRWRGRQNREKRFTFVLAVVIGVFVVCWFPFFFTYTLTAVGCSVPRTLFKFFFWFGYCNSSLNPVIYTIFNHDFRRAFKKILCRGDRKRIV
The class given is functional, cell-based.

Experiment [5] has as its target T4, Amine oxidase [flavin-containing] A (Homo sapiens, UniProt P21397).
T4 sequence (P21397 whole entry): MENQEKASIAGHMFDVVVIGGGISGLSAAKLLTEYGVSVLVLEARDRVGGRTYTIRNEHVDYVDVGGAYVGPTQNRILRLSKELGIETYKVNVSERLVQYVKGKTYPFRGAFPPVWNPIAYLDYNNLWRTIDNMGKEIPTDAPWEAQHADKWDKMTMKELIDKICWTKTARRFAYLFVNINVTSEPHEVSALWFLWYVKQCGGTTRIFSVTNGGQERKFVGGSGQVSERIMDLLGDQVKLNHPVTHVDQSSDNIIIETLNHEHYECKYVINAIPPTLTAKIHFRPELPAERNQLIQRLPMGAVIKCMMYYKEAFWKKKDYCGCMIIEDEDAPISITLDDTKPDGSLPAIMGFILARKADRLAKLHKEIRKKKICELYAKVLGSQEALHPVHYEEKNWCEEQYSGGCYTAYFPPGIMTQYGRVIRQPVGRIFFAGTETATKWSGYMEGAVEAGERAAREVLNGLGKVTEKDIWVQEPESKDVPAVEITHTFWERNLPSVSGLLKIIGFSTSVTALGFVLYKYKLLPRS
Type of experiment: functional.

For experiment [6], the target named is T1, Muscarinic acetylcholine receptor M2. The class given is functional, cell-based. The source holds these as a separate data set.
Experiment [7] concerns the target Sodium-dependent dopamine transporter (Homo sapiens, UniProt Q01959).
Experiment [8] concerns the target T5, Equilibrative nucleoside transporter 1 (Homo sapiens, UniProt Q99808).
T5 sequence (Q99808 whole entry): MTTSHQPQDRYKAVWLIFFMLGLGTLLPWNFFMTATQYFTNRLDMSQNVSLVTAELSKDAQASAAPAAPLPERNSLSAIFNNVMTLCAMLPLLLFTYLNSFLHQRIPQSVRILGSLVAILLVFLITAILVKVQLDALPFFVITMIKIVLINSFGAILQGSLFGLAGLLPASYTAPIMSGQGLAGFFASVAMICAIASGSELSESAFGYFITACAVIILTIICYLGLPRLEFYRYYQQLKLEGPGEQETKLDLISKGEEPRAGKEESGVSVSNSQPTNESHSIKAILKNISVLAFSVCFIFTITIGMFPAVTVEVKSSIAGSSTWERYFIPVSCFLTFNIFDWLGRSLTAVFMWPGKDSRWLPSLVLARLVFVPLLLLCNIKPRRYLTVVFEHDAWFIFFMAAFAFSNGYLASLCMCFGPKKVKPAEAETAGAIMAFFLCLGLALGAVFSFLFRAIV
Further: assay procedure not described here.

Delta-type opioid receptor, sequence (P41143 whole entry): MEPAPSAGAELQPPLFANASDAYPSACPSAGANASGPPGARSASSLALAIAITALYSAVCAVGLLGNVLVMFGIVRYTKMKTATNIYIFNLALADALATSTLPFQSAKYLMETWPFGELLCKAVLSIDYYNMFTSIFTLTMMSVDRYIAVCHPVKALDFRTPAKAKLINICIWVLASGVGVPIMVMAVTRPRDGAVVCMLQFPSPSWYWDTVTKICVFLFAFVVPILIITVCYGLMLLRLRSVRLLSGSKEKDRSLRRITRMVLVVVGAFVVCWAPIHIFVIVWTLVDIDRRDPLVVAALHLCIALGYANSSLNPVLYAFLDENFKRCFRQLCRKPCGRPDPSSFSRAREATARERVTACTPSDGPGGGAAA
Motilin receptor, sequence (O43193 whole entry): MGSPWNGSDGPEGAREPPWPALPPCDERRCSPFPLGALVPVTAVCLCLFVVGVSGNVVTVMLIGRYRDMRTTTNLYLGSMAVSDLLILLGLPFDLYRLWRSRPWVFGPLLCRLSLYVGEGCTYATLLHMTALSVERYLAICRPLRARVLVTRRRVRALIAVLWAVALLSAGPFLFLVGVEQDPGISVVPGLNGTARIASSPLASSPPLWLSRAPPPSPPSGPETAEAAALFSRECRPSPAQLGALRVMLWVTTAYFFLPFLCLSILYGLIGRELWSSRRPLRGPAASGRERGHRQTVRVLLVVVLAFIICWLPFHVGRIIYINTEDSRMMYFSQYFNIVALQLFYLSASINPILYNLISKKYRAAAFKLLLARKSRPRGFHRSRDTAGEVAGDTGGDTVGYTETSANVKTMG
cGMP-inhibited 3',5'-cyclic phosphodiesterase 3A, sequence (Q14432 whole entry): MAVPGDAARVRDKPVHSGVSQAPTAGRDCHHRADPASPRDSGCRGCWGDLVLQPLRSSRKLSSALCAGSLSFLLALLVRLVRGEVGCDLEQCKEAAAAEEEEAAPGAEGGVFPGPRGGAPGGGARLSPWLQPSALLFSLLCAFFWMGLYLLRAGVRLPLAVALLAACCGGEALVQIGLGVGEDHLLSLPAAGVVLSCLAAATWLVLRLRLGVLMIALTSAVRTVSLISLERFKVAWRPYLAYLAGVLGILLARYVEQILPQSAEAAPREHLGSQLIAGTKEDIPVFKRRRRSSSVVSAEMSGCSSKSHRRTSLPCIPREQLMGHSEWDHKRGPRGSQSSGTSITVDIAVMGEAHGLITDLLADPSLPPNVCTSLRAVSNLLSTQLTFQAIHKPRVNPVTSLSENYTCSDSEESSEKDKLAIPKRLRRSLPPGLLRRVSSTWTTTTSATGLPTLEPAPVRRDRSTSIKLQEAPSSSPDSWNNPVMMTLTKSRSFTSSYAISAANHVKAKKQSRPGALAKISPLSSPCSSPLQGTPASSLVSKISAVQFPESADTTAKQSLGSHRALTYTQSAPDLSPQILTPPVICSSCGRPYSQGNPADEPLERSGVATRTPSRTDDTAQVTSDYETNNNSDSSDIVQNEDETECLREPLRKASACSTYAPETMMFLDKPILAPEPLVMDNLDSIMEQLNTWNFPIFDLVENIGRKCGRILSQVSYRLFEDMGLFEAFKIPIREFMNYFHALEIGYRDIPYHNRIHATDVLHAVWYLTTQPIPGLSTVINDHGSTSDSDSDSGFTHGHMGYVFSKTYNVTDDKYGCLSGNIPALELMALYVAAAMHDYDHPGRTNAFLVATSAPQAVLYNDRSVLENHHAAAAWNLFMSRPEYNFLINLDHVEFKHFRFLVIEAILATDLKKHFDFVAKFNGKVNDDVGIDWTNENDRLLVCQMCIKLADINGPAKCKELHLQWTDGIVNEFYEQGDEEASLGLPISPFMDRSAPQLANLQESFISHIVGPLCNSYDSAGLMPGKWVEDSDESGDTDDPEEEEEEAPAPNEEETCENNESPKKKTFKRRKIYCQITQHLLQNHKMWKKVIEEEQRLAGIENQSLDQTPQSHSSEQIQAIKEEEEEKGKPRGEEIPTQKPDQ
D(3) dopamine receptor, sequence (P35462 whole entry): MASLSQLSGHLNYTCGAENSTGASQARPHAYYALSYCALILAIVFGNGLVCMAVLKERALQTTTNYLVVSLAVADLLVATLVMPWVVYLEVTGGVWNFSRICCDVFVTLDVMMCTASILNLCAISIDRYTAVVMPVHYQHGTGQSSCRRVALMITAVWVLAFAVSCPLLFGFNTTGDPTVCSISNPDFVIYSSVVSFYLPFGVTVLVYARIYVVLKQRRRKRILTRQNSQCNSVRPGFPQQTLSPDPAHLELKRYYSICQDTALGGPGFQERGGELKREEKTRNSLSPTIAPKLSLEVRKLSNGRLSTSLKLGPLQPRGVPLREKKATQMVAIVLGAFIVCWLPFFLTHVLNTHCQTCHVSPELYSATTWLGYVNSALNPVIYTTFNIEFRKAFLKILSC
Sodium-dependent dopamine transporter, sequence (Q01959 whole entry): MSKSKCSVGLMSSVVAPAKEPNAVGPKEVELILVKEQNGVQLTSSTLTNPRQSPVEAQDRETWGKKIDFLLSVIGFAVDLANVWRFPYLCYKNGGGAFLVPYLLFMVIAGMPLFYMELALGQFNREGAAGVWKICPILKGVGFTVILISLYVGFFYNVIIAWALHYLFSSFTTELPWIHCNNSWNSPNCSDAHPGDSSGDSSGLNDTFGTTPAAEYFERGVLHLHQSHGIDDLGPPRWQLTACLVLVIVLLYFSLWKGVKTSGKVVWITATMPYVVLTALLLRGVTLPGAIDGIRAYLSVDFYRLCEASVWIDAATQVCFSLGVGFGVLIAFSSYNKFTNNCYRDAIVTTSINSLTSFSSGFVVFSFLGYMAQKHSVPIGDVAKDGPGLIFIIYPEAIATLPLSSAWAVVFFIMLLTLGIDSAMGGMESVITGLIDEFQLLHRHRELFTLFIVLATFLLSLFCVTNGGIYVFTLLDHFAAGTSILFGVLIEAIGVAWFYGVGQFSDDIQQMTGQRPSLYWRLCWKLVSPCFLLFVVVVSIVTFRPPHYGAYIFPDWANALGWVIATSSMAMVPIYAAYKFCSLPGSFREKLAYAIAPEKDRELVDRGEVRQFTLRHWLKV

Consider `CC(C)(C)C(=O)Oc1ccc(S(=O)(=O)Nc2ccccc2C(=O)NCC(=O)O)cc1`, for which the AC50 (in experiment [1]; on Motilin receptor; in [2]; at D(3) dopamine receptor; in [3]; on Estrogen receptor) was over 30 µM each time. Besides, the AC50 in experiment [4], in [5], in experiment [6] and in [7] was over 30 µM each time.
In the case of `C[C@]1(O)CC[C@H]2[C@@H]3CCC4=CC(=O)CC[C@]4(C)[C@@]3(F)[C@@H](O)C[C@@]21C` [FLUOXYMESTERONE], the AC50 (usually the midpoint of the concentration-response curve, whichever way the signal moves) was over 30 µM in [1]; over 10 µM on Motilin receptor; over 30 µM in [2]; over 30 µM on D(3) dopamine receptor; over 10 µM in [3]; over 10 µM in [8]. The AC50 in experiment [4] is over 10 µM; in experiment [5], over 30 µM; in [6] it was over 10 µM; in experiment [7], over 10 µM.
Take `CCCC(=O)O[C@]1(C(=O)CO)CC[C@H]2[C@@H]3CCC4=CC(=O)CC[C@]4(C)[C@H]3[C@@H](O)C[C@@]21C` [HYDROCORTISONE BUTYRATE]: the AC50 was over 30 µM in experiment [1]; over 10 µM on Motilin receptor; over 30 µM in experiment [2]; over 30 µM at D(3) dopamine receptor; over 10 µM in experiment [3]; over 10 µM in experiment [8]. For the same compound, the AC50 in experiment [4], in experiment [5], in experiment [6] and in experiment [7] was over 10 µM each time.
Take `C[C@](N)(Cc1ccc(O)c(O)c1)C(=O)O` [METHYLDOPA]: the AC50 is over 30 µM in [1]; over 10 µM at Motilin receptor; over 30 µM in experiment [2]; over 30 µM at D(3) dopamine receptor; over 10 µM in [3]; over 10 µM in experiment [8]. Also, the AC50 in experiment [4], in experiment [5], in [6] and in [7] was over 10 µM each time.
On to `CCCc1nc(C(C)(C)O)c(C(=O)OCc2oc(=O)oc2C)n1Cc1ccc(-c2ccccc2-c2nnn[nH]2)cc1` [OLMESARTAN MEDOXOMIL], for which the AC50 was 11 µM in experiment [1]; over 10 µM at Motilin receptor; over 10 µM in experiment [2]; over 10 µM at D(3) dopamine receptor; over 10 µM in [3]; over 50 µM in experiment [8]. The AC50 in experiment [4] is over 10 µM; in experiment [5] it was over 10 µM; in experiment [6], over 10 µM; in [7], over 30 µM.
As for `Clc1ccc(CCCOCCCN2CCCCC2)cc1` [PITOLISANT], the AC50 in experiment [1] is over 30 µM; at Motilin receptor, over 30 µM; in [2], over 30 µM; on D(3) dopamine receptor, over 30 µM; in experiment [3] it was 15 µM; at Estrogen receptor, over 30 µM. The values for the AC50 in [5], in experiment [6] and in experiment [7] were over 30 µM, over 30 µM and 8.5 µM, respectively.
Take `CCCN(CCC)C(=O)C(CCC(=O)O)NC(=O)c1ccccc1` (centres undefined) [PROGLUMIDE]: the AC50 in experiment [1] is over 30 µM; on Motilin receptor, over 30 µM; in [2], over 30 µM; on D(3) dopamine receptor, over 30 µM; in experiment [3], over 10 µM; in experiment [8] it was over 30 µM. For the same compound, the AC50 in [4] is over 10 µM; in experiment [5], over 30 µM; in [6], over 10 µM; in [7], over 30 µM.
On to `C#C[C@]1(O)CC[C@H]2[C@@H]3CCc4cc(OC5CCCC5)ccc4[C@H]3CC[C@@]21C` [QUINESTROL], for which the AC50 in [1] was over 30 µM; on Motilin receptor, over 10 µM; in experiment [2] it was over 30 µM; at D(3) dopamine receptor, over 30 µM; in [3], over 10 µM; in experiment [8], over 10 µM. The AC50 in [4], in experiment [5], in [6] and in experiment [7] was over 10 µM throughout.
As to `CCN(CC)C(=O)N[C@H]1C[C@@H]2c3cccc4[nH]cc(c34)C[C@H]2N(C)C1` [TERGURIDE], the AC50 in experiment [1] is over 30 µM; at Motilin receptor, over 30 µM; in experiment [2] it was over 30 µM; on D(3) dopamine receptor, 0.006 µM; in experiment [3], over 30 µM; in [8] it was over 30 µM. Also, the AC50 in experiment [4], in [5], in experiment [6] and in [7] was over 30 µM in each case.
On to `C/C(O)=C(\C#N)C(=O)Nc1ccc(C(F)(F)F)cc1` [TERIFLUNOMIDE], for which the AC50 (in [1]; at Motilin receptor; in [2]; at D(3) dopamine receptor; in experiment [3]; in [8]) was over 30 µM throughout. In addition, the AC50 in [4] is over 30 µM; in [5] it was 4.9 µM; in [6], over 30 µM; in [7], over 30 µM.
Take `C[C@]12CC[C@H]3[C@@H](CCC4=CC(=O)CC[C@@]43C)[C@@H]1CC[C@@H]2O` [TESTOSTERONE]: the AC50 in [1] is over 30 µM; on Motilin receptor it was over 10 µM; in experiment [2], over 30 µM; at D(3) dopamine receptor, over 30 µM; in [3], over 10 µM; in [8] it was over 10 µM. Also, the AC50 in experiment [4], in experiment [5], in [6] and in [7] was over 10 µM each time.
As to `O=C(NCCNCC(O)COc1ccc(O)cc1)N1CCOCC1` (centres undefined) [XAMOTEROL], the AC50 (in [1]; on Motilin receptor; in experiment [2]; on D(3) dopamine receptor; in experiment [3]; in [8]) was over 30 µM each time. Also, the AC50 in [4], in experiment [5], in [6] and in experiment [7] was over 30 µM throughout.
